Columns and labels:
[1] = in vivo; cited from earlier work
recurrent H3K28M DMG = conditions: human, in vivo; cited from earlier work
physchem = conditions: water, solubility in water

In the case of NC(=O)c1cccnc1 [Nicotinamide], the “NOAEL (No Observed Adverse Effect Level)” value [1] is listed as “around 200 mg/kg bw”.
In the case of Cc1ccccc1CN1C(=O)C2=C(CCN(Cc3ccccc3)C2)N2CCN=C12 [ONC201, 7-Benzyl-4-(2-methylbenzyl)-1,2,6,7,8,9-hexahydroimidazo[1,2-a]pyrido[3,4-e]pyrimidin-5 (4H)-one], the response of patients (recurrent H3K28M DMG) is given as “sustained response”.
Compound Cc1ccccc1CN1C(=O)C2=C(CCN(Cc3ccccc3)C2)N2CCN=C12 [ONC201.2HCl] has a solubility (physchem) of 41.4 mg/mL.

From patent US20260306494A1, “LIQUID AND SOLID COMPOSITIONS OF IMIPRIDONE DERIVATIVES” (INSTITUT GUSTAVE ROUSSY, priority 2023, published 2026)
